Assay results reported in ChEMBL document CHEMBL3045532, “Synthesis and evaluation of novel prodrugs of naproxen” (Med Chem Res, 2011).
Each block holds one molecule with its values, some of them ahead of it.

Assays:
Rattus norvegicus [1] = assay: Anti-inflammatory activity in Rattus norvegicus Wistar (rat) assessed as inhibition of carrageenan-induced edema volume at 62.8 mg/kg, po measured after 90 min; type: functional; details: 1.5 h
Rattus norvegicus [2] = assay: Anti-inflammatory activity in Rattus norvegicus Wistar (rat) assessed as inhibition of carrageenan-induced edema volume at 62.8 mg/kg, po measured after 120 min; type: functional; details: 2 h
Rattus norvegicus [3] = assay: Gastrointestinal toxicity in Rattus norvegicus Wistar (rat) assessed as ulcer at 62.8 mg/kg, po; type: organism-based; set-up: dose 62.8 mg/kg, route oral; details: in vivo
Rattus norvegicus [4] = assay: Anti-inflammatory activity in Rattus norvegicus Wistar (rat) assessed as inhibition of carrageenan-induced edema volume at 62.8 mg/kg, po measured after 60 min; type: functional; details: 1 h
Mus musculus [5] = assay: Analgesic activity in Mus musculus (mouse) assessed as inhibition of acetic acid-induced writhing at 62.8 mg/kg, po pretreated 1 hr before acetic acid challenge; type: functional
Rattus norvegicus [6] = assay: Anti-inflammatory activity in Rattus norvegicus Wistar (rat) assessed as inhibition of carrageenan-induced edema volume at 62.8 mg/kg, po measured after 30 min; type: functional; details: 0.5 h
[7] = Prodrug conversion in phosphate buffer assessed as half-life for hydrolysis at pH 7.4; type: physicochemical
[8] = Prodrug conversion in acetate buffer assessed as half-life for hydrolysis at pH 4; type: physicochemical
[9] = Prodrug conversion in acetate buffer assessed as half-life for hydrolysis at pH 5; type: physicochemical
[10] = Prodrug conversion in acetate buffer assessed as half-life for hydrolysis at pH 3; type: physicochemical
Rattus norvegicus [11] = assay: Anti-inflammatory activity in Rattus norvegicus Wistar (rat) assessed as inhibition of carrageenan-induced edema volume at 63.2 mg/kg, po measured after 90 min; type: functional; details: 1.5 h
Rattus norvegicus [12] = assay: Anti-inflammatory activity in Rattus norvegicus Wistar (rat) assessed as inhibition of carrageenan-induced edema volume at 63.2 mg/kg, po measured after 120 min; type: functional; details: 2 h
Rattus norvegicus [13] = assay: Anti-inflammatory activity in Rattus norvegicus Wistar (rat) assessed as inhibition of carrageenan-induced edema volume at 63.2 mg/kg, po measured after 60 min; type: functional; details: 1 h
Mus musculus [14] = assay: Analgesic activity in Mus musculus (mouse) assessed as inhibition of acetic acid-induced writhing at 63.2 mg/kg, po pretreated 1 hr before acetic acid challenge; type: functional
Rattus norvegicus [15] = assay: Anti-inflammatory activity in Rattus norvegicus Wistar (rat) assessed as inhibition of carrageenan-induced edema volume at 63.2 mg/kg, po measured after 30 min; type: functional; details: 0.5 h
Rattus norvegicus [16] = assay: Gastrointestinal toxicity in Rattus norvegicus Wistar (rat) assessed as ulcer at 63.2 mg/kg, po; type: organism-based; set-up: dose 63.2 mg/kg, route oral; details: in vivo
Rattus norvegicus [17] = assay: Anti-inflammatory activity in Rattus norvegicus Wistar (rat) assessed as inhibition of carrageenan-induced edema volume at 66.0 mg/kg, po measured after 90 min; type: functional; details: 1.5 h
Rattus norvegicus [18] = assay: Anti-inflammatory activity in Rattus norvegicus Wistar (rat) assessed as inhibition of carrageenan-induced edema volume at 66.0 mg/kg, po measured after 120 min; type: functional; details: 2 h
Rattus norvegicus [19] = assay: Gastrointestinal toxicity in Rattus norvegicus Wistar (rat) assessed as ulcer at 66 mg/kg, po; type: organism-based; set-up: dose 66 mg/kg, route oral; details: in vivo
Rattus norvegicus [20] = assay: Anti-inflammatory activity in Rattus norvegicus Wistar (rat) assessed as inhibition of carrageenan-induced edema volume at 66.0 mg/kg, po measured after 60 min; type: functional; details: 1 h
Mus musculus [21] = assay: Analgesic activity in Mus musculus (mouse) assessed as inhibition of acetic acid-induced writhing at 66 mg/kg, po pretreated 1 hr before acetic acid challenge; type: functional
Rattus norvegicus [22] = assay: Anti-inflammatory activity in Rattus norvegicus Wistar (rat) assessed as inhibition of carrageenan-induced edema volume at 66.0 mg/kg, po measured after 30 min; type: functional; details: 0.5 h
Rattus norvegicus [23] = species on record: Rattus norvegicus; assay: animal or person; details: Wistar, po, 1.5 h, read-out: INH
Description: Anti-inflammatory activity in Rattus norvegicus Wistar (rat) assessed as inhibition of carrageenan-induced edema volume at 50.0 mg/kg, po measured after 90 min

Rattus norvegicus [24] = species on record: Rattus norvegicus; assay: animal or person; details: Wistar, po, 2 h, read-out: INH
Description: Anti-inflammatory activity in Rattus norvegicus Wistar (rat) assessed as inhibition of carrageenan-induced edema volume at 50.0 mg/kg, po measured after 120 min

Mus musculus [25] = species on record: Mus musculus; assay: animal or person; details: po, read-out: INH
Description: Analgesic activity in Mus musculus (mouse) assessed as inhibition of acetic acid-induced writhing at 50 mg/kg, po pretreated 1 hr before acetic acid challenge

Rattus norvegicus [26] = species on record: Rattus norvegicus; assay: animal or person; details: Wistar, po, 0.5 h, read-out: INH
Description: Anti-inflammatory activity in Rattus norvegicus Wistar (rat) assessed as inhibition of carrageenan-induced edema volume at 50.0 mg/kg, po measured after 30 min

Rattus norvegicus [27] = species on record: Rattus norvegicus; assay: animal or person; details: Wistar, po, 1 h, read-out: INH
Description: Anti-inflammatory activity in Rattus norvegicus Wistar (rat) assessed as inhibition of carrageenan-induced edema volume at 50.0 mg/kg, po measured after 60 min

- t1/2 [7]: 25 h
- t1/2 [8]: 44 h
- t1/2 [9]: 88 h
- t1/2 [10]: 115 h
SMILES: COc1ccc2cc(C(C)C(=O)OCC(OC(C)=O)C(OC(C)=O)C(OC(C)=O)C(/C=N/CC(=O)O)OC(C)=O)ccc2c1 (stereo not given)
- inhibition in vivo at 62.8 mg/kg (Rattus norvegicus [1]): 58%
- inhibition in vivo at 62.8 mg/kg (Rattus norvegicus [2]): 76%
- Activity (Rattus norvegicus [3]): Non-toxic
- inhibition in vivo at 62.8 mg/kg (Rattus norvegicus [4]): 37%
- inhibition in vivo at 62.8 mg/kg (Mus musculus [5]): 63.6%
- inhibition in vivo at 62.8 mg/kg (Rattus norvegicus [6]): 58%

- t1/2 [7]: 22 h
- t1/2 [8]: 15 h
- t1/2 [9]: 77 h
- t1/2 [10]: 15 h
SMILES: COc1ccc2cc(C(C)C(=O)OCC(OC(C)=O)C(OC(C)=O)C(OC(C)=O)C(/C=N/[C@@H](C)C(=O)O)OC(C)=O)ccc2c1 (stereo not given in full)
- inhibition in vivo at 63.2 mg/kg (Rattus norvegicus [11]): 49%
- inhibition in vivo at 63.2 mg/kg (Rattus norvegicus [12]): 67%
- inhibition in vivo at 63.2 mg/kg (Rattus norvegicus [13]): 29%
- inhibition in vivo at 63.2 mg/kg (Mus musculus [14]): 98.2%
- inhibition in vivo at 63.2 mg/kg (Rattus norvegicus [15]): 62%
- Activity (Rattus norvegicus [16]): Non-toxic

- t1/2 [7]: 19 h
- t1/2 [8]: 115 h
- t1/2 [9]: 88 h
- t1/2 [10]: 44 h
SMILES: COc1ccc2cc(C(C)C(=O)OCC(OC(C)=O)C(OC(C)=O)C(OC(C)=O)C(/C=N/[C@H](C(=O)O)C(C)C)OC(C)=O)ccc2c1 (stereo not given in full)
- inhibition in vivo at 66 mg/kg (Rattus norvegicus [17]): 43%
- inhibition in vivo at 66 mg/kg (Rattus norvegicus [18]): 64%
- Activity (Rattus norvegicus [19]): Non-toxic
- inhibition in vivo at 66 mg/kg (Rattus norvegicus [20]): 19%
- inhibition in vivo at 66 mg/kg (Mus musculus [21]): 63.6%
- inhibition in vivo at 66 mg/kg (Rattus norvegicus [22]): 30%

SMILES: COc1ccc2cc([C@H](C)C(=O)O)ccc2c1 [NAPROXEN]
- inhibition in vivo at 50 mg/kg (Rattus norvegicus [23]): 42%
- inhibition in vivo at 50 mg/kg (Rattus norvegicus [24]): 58%
- inhibition in vivo at 50 mg/kg (Mus musculus [25]): 61.4%
- inhibition in vivo at 50 mg/kg (Rattus norvegicus [26]): 10%
- inhibition in vivo at 50 mg/kg (Rattus norvegicus [27]): 32%
